Patent US10472677B2, “Translational dysfunction based therapeutics” (Translational Therapeutics, Inc., priority 2005, dated 2019)

Key:
eIF4E wild-type = molecular target: T1, eIF4E wild-type (Mus musculus, UniProt P63073); test: tryptophan fluorescence quenching titration of nucleoside/nucleotide binding; conditions: fluorescence spectroscopy, wild-type eIF4E; read-out: apparent dissociation constant (Kd) for eIF4E
T1 construct: made in house
Description: For fluorescence titrations, mouse eIF4E, which differs from human eIF4E by four nonconserved amino acids, was produced as described. For NMR spectroscopy, mouse eIF4E was expressed as a fusion with the B1 domain of protein G (G4E, kind gift of Gerhard Wagner, Harvard University, Cambridge, Mass.), in BL21 (DE-3) cells by induction with 0.8 mM isopropyl-β-D-thiogalactopyranoside at 18° C. for 20 h in M9 minimal media containing 1 g/l ^15NH4Cl as the sole nitrogen source (Cambridge Isotopes). Cells were lysed at 4° C. by sonication in 0.1 M NaCl/50 mM Tris.HCl (pH 7.5/0.5 mM EDTA/0.5% (vol/vol) Nonidet P-40/10 mM 2-mercaptoethanol/1 mM PMSF. Lysates were cleared by centrifugation at 30,000×g, adsorbed onto m^7G diphosphate-conjugated agarose (Amersham Pharmacia), and extensively washed with 0.1 M NaCl/20 mM Tris.HCl (pH 7.5)/0.5 mM EDTA (Buffer A) at 4° C. Subsequently, beads were washed with 0.1 mM GTP in Buffer A, and G4E was eluted with 5 mM m^7G in Buffer A. Eluate was diluted with 20 mM Na2PO4 (pH 7.5) to reduce NaCl concentration to 50 mM, applied to Sepharose Q anion exchange column (Amersham Pharmacia), and eluted with a linear gradient of NaCl in 20 mM Na2PO4 (pH 7.5) at 4° C. Eluate was dialyzed extensively against 0.1 M NaCl/50 mM Na2PO4 (pH 6.5)/5 mM DTT at 4° C. to produce apo-G4E, as verified by using NMR spectroscopy and fluorescence titrations. Purity and identity of G4E were verified by using SDS/PAGE and electrospray ionization MS. Proteins were concentrated by using Amicon concentrators (Millipore).
Fluorescence measurements were performed by using a home-built fluorimeter, as described. All titrations were performed in 0.3 M NaCl/10 mM Na2PO4 (pH 7.5)/1 μM zinc in 0.3×0.3 cm^2 fluorescence cuvette (Hellma), by using eIF4E concentration of 2 μM. […] Corrected relative fluorescence intensities were normalized, and fluorescence quenching curves were fit to a heuristic single-site-binding expression: I/I0=Kd^n/(x^n+Kd^n) where x is ligand concentration, Kd is the apparent dissociation constant, and n is the Hill coefficient.

[1] = test system: eIF4E nuclear bodies in NIH 3T3 cells; test: subcellular eIF4E organization, confocal immunofluorescence and fractionation/Western; format: cell-based, mouse
Description: NIH 3T3 mouse fibroblasts were maintained under subconfluent conditions in DMEM (GIBCO/BRL)/10% (vol/vol) FBS/2 mM […]/0.1 mg/ml penicillin-streptomycin, at 37° C. in 5% CO2. For cell treatments, drugs were dissolved in PBS (pH 7.4) and filter-sterilized. Untreated cells received filter-sterilized PBS.
Cells were washed with PBS, fixed in methanol for 20 min at −20° C., and blocked in PBS, 10% (vol/vol) FBS, and 0.1% (vol/vol) Tween 20 for 30 min at room temperature. Blocked cells were stained with primary antibodies against Nopp140 [1:50 (2)], Sc35 (1:50, Becton Dickinson), and eIF4E (1:50, Transduction Laboratories) in blocking solution for 3 h at room temperature. Upon washing with PBS, cells were stained with secondary antibodies in blocking solution for 30 min. FITC-conjugated donkey anti-rabbit antibody (Jackson ImmunoResearch), Texas red-conjugated donkey anti-mouse antibody, and FITC-conjugated rabbit anti-mouse antibody, as appropriate. […] Fluorescence was observed by using 100× optical magnification and 2× digital zoom using Leica TCS-SP confocal microscope using excitation wavelengths of 488, 568, or 351/364 nm. All channels were detected separately, with no observable crosstalk. […]
Cells were washed twice with PBS and lysed by slow pipetting in 0.14 M NaCl/10 mM Tris.HCl (pH 8.4)/1.5 mM MgCl2/0.5% (vol/vol) Nonidet P-40/1 mM DTT/100 units/ml RNasin (Promega) at 4° C. […] This yielded intact nuclei, as observed by using light microscopy, with no significant cytoplasmic contamination, as evaluated using tRNA^Lys and β-actin contents. […]
Protein from whole cells or nuclear and cytoplasmic fractions was extracted by using 0.15 M NaCl/50 mM Tris.HCl (pH 7.4)/1% (vol/vol) Nonidet P-40/0.25% (wt/vol) sodium deoxycholate/1 mM EDTA/1 mM PMSF by incubating for 30 min at 4° C. […] Bound antibodies were chemiluminescently detected by using horseradish peroxidase-conjugated secondary antibodies (Amersham Pharmacia) and SuperSignal West Pico reagent according to manufacturer's instructions (Pierce).

[2] = test system: cyclin D1 protein in NIH 3T3 cells; test: Western blot of total extracts of treated cells; format: cell-based, mouse
Description: Protein concentrations were determined by using bicinchoninic acid-copper reduction (Pierce) and 20-μg aliquots were resolved using SDS/PAGE, transferred to Immobilon-P membrane (Millipore), blocked, and probed by using primary antibodies against eIF4E (1:5000, Transduction Laboratories), cyclin D1 (1:500, Becton Dickinson), β-actin (1:5000, Sigma), c-myc (1:1000, Becton Dickinson), and Sc35 (1:5000, Santa Cruz Biotechnology). Bound antibodies were chemiluminescently detected by using horseradish peroxidase-conjugated secondary antibodies (Amersham Pharmacia) and SuperSignal West Pico reagent according to manufacturer's instructions (Pierce).

cellular guanosine pools = conditions: read-out: EC50 depletion of cellular guanosine pools; cited from earlier work

T1 sequence (P63073 whole entry): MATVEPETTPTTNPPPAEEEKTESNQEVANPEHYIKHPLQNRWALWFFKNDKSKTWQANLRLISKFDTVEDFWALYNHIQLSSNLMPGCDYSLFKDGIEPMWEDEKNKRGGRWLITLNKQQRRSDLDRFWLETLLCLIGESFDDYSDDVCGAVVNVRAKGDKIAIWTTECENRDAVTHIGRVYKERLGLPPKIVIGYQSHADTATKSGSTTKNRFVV

NC(=O)c1ncn([C@@H]2O[C@H](CO)[C@@H](O)[C@H]2O)n1 [Ribavirin, 1-β-D-ribofuranosyl-1,2,4-triazole-3-carboxamide]
Kd (eIF4E wild-type): 8.4 µM | EC50 ([1]; Mus musculus, NIH3T3, NIH 3T3, read-out: EC50 disruption of nuclear eIF4E bodies and cytoplasmic retention of eIF4E): 0.1 to 1 µM | concentration at which disruption of eIF4E nuclear bodies is evident ([1]; NIH 3T3, 48 h): 1 µM | concentration at which disruption of eIF4E nuclear bodies is nearly complete ([1]; NIH 3T3, 48 h): 10 µM | levels of B-actin and eIF4E proteins [2]: not reduced | EC50 ([2]; Mus musculus, NIH3T3, read-out: apparent EC50 reduction of cyclin D1 protein levels): 0.1 to 1 µM | EC50 (cellular guanosine pools): ~100 µM
